Measured values taken from US20240368104A1, “Novel Dialkoxynaphtho[2,3-C]Furan-1(3H)-One Derivatives and Pharmaceutical Composition For Preventing or Treating Respiratory Disease or SARS-COV-2 Infection Disease, Comprising Same” (priority 2021, published 2024).
pIC50: −log10 of the molar value. Where a name gives a salt, the structure may show the parent alone. Read-outs that look alike come from different tables or passages of the source.

Assays:
[1] = in vitro; conditions: African green monkey
[2] = tested on: SARS-COV-2; assay: microbe, parasite or virus in culture; format: cell-based; set-up: SI (Selectivity Index, CC50/IC50): unit not given here; conditions: for SI (Selectivity Index, CC50/IC50): SARS-COV-2, values >50 assumed to be 50; for pIC50: read-out: SARS-COV-2 inhibition (IC50)
[3] = Severe acute respiratory syndrome coronavirus 2, Vero, 24 h
[4] = Severe acute respiratory syndrome coronavirus 2, Vero cells, 24 hours infection

Structure (SMILES)	CC50 [1]	SI (Selectivity Index, CC50/IC50) [2]	pIC50 [2, 3]	pIC50 [2, 4]
CCN(c1ncc(-c2c3c(cc4cc(OC)c(OC)cc24)COC3=O)cn1)C1CCCCC1.Cl [Example 78, 9-(2-(cyclohexyl(ethyl)amino)pyrimidin-5-yl)-6,7-dimethoxynaphtho[2,3-c]furan-1(3H)-one hydrochloride]	> 50 µM	18.80	5.58	–
COc1cc2cc3c(c(-c4cc5c(cc4OC(=O)c4cccnc4)OCO5)c2cc1OC)C(=O)OC3 [Example 272, 6-(6,7-dimethoxy-3-oxo-1,3-dihydronaphtho[2,3-c]furan-4-yl)benzo[d][1,3]dioxol-5-yl nicotinate]	> 50 µM	27.23	–	5.74
COc1cc2cc3c(c(-c4ccc(N(C)CC5CCCO5)nc4)c2cc1OC)C(=O)OC3 (stereo not drawn) [Example 192, 6,7-dimethoxy-9-(6-(methyl((tetrahydrofuran-2-yl)methyl)amino)pyridin-3-yl)naphtho[2,3-c]furan-1(3H)-one]	> 50 µM	10.08	–	5.30
COc1cc2cc3c(c(-c4ccc(N5CCOCC5)nc4)c2cc1OC)C(=O)OC3 [Example 124, 6,7-dimethoxy-9-(6-morpholinopyridin-3-yl)naphtho[2,3-c]furan-1(3H)-one]	> 50 µM	176.18	–	6.55
COc1cc2cc3c(c(-c4ccc(N5CCCCC5)cc4)c2cc1OC)C(=O)OC3 [Example 242, 6,7-dimethoxy-9-(4-(piperidin-1-yl)phenyl)naphtho[2,3-c]furan-1(3H)-one]	10.6 µM	5.45	–	5.71
COc1cc2cc3c(c(-c4ccc(N(C)c5ccc(C#N)cc5)nc4)c2cc1OC)C(=O)OC3.Cl [Example 218, 4-((5-(6,7-dimethoxy-3-oxo-1,3-dihydronaphtho[2,3-c]furan-4-yl)pyridin-2-yl)(methyl)amino)benzonitrile]	> 50 µM	65.75	6.12	–
CNc1ccc(-c2c3c(cc4cc(OC)c(OC)cc24)COC3=O)cn1 [Example 229, 6,7-dimethoxy-9-(6-(methylamino)pyridin-3-yl)naphtho[2,3-c]furan-1(3H)-one]	> 50 µM	17.63	–	5.55
COc1cc2cc3c(c(-c4cccc(N5CCCCC5)c4)c2cc1OC)C(=O)OC3 [Example 243, 6,7-dimethoxy-9-(3-(piperidin-1-yl)phenyl)naphtho[2,3-c]furan-1(3H)-one]	> 50 µM	3.26	–	4.81
COc1cc2cc3c(c(-c4ccc(N(C)c5ccc(N(C)C(C)=O)cc5)nc4)c2cc1OC)C(=O)OC3.Cl [Example 236, N-(4-((5-(6,7-dimethoxy-3-oxo-1,3-dihydronaphtho[2,3-c]furan-4-yl)pyridin-2-yl)(methyl)amino)phenyl)-N-methylacetamide]	> 50 µM	30.25	5.78	–
COc1cc2cc3c(c(-c4ccc(N5CCc6ccccc6C5)nc4)c2cc1OC)C(=O)OC3.Cl [Example 189, 9-(6-(3,4-dihydroisoquinolin-2 (1H)-yl)pyridin-3-yl)-6,7-dimethoxynaphtho[2,3-c]furan-1(3H)-one]	> 50 µM	72.26	6.16	–
CCCCN(C)c1ccc(-c2c3c(cc4cc(OC)c(OC)cc24)COC3=O)cn1 [Example 180, 9-(6-(butyl(methyl)amino)pyridin-3-yl)-6,7-dimethoxynaphtho[2,3-c]furan-1(3H)-one]	> 50 µM	73.59	–	6.17
COC[C@@H]1CCCN1c1ncc(-c2c3c(cc4cc(OC)c(OC)cc24)COC3=O)cn1.Cl [Example 97, (S)-6,7-dimethoxy-9-(2-(2-(methoxymethyl)pyrrolidin-1-yl)pyrimidin-5-yl)naphtho[2,3-c]furan-1(3H)-one hydrochloride]	> 50 µM	8.74	5.24	–
COCCN(C)c1ccc(-c2c3c(cc4cc(OC)c(OC)cc24)COC3=O)cc1 [Example 256, 6,7-dimethoxy-9-(4-((2-methoxyethyl)(methyl)amino)phenyl)naphtho[2,3-c]furan-1(3H)-one]	> 50 µM	82.38	–	6.21
CCN(C)c1ccc(-c2c3c(cc4cc(OC)c(OC)cc24)COC3=O)cc1 [Example 248, 9-(4-(ethyl(methyl)amino)phenyl)-6,7-dimethoxynaphtho[2,3-c]furan-1(3H)-one]	> 50 µM	344.5	–	> 7.01
COc1cc2cc3c(c(-c4ccc(N5CCOCC5)nn4)c2cc1OC)C(=O)OC3 [Example 219, 6,7-dimethoxy-9-(6-morpholinopyridazin-3-yl)naphtho[2,3-c]furan-1(3H)-one]	> 50 µM	1.00	–	< 4.30
CCCCN(C)c1ccc(-c2c3c(c(OC)c4cc(OC)c(OC)cc24)C(=O)OC3)cn1.Cl [Example 261, 4-(6-(butyl(methyl)amino)pyridin-3-yl)-6,7,9-trimethoxynaphtho[2,3-c]furan-1(3H)-one]	> 50 µM	4.21	4.92	–
COc1cc2cc3c(c(-c4cnc(N5CCCCC5CO)nc4)c2cc1OC)C(=O)OC3 (stereo not drawn) [Example 104, 9-(2-(2-(hydroxymethyl)piperidin-1-yl)pyrimidin-5-yl)-6,7-dimethoxynaphtho[2,3-c]furan-1(3H)-one hydrochloride]	> 50 µM	1.0	< 4.30	–
COc1cc2cc3c(c(-c4ccc(N(C)c5ccccc5)nc4)c2cc1OC)C(=O)OC3 [Example 222, 6,7-dimethoxy-9-(6-(methyl(phenyl)amino)pyridin-3-yl)naphtho[2,3-c]furan-1(3H)-one]	> 50 µM	162.21	–	6.51
COc1ccc(CN(C)c2ccc(-c3c4c(cc5cc(OC)c(OC)cc35)COC4=O)cn2)c(OC)c1.Cl [Example 232, 9-(6-((2,4-dimethoxybenzyl)(methyl)amino)pyridin-3-yl)-6,7-dimethoxynaphtho[2,3-c]furan-1(3H)-one]	> 50 µM	15.36	5.49	–
COc1cc2cc3c(c(-c4ccc5nc(C)ccc5c4)c2cc1OC)C(=O)OC3 [Example 116, 6,7-dimethoxy-9-(2-methylquinolin-6-yl)naphtho[2,3-c]furan-1(3H)-one]	> 50 µM	43.72	–	5.94
COc1cc2cc3c(c(-c4cnc(N5CC(C)CC(C)C5)nc4)c2cc1OC)C(=O)OC3 (stereo not drawn) [Example 57, 9-(2-(3,5-dimethylpiperidin-1-yl)pyrimidin-5-yl)-6,7-dimethoxynaphtho[2,3-c]furan-1(3H)-one]	> 50 µM	12.07	–	5.38
COc1cc2cc3c(c(-c4cnc(N5CCc6sccc6C5)nc4)c2cc1OC)C(=O)OC3 [Example 12, 9-(2-(6,7-dihydrothieno[3,2-c]pyridin-5 (4H)-yl)pyrimidin-5-yl)-6,7-dimethoxynaphtho[2,3-c]furan-1(3H)-one]	> 50 µM	60.38	–	6.08
COc1cc2cc3c(c(-c4cnc(N5CCC[C@H]5C(=O)O)nc4)c2cc1OC)C(=O)OC3 [Example 61, (5-(6,7-dimethoxy-3-oxo-1,3-dihydronaphtho[2,3-c]furan-4-yl)pyrimidin-2-yl)-L-proline]	> 50 µM	1.00	–	< 4.30
CCC(C)CN(C)c1ccc(-c2c3c(cc4cc(OC)c(OC)cc24)COC3=O)cn1.Cl (stereo not drawn) [Example 176, 6,7-dimethoxy-9-(6-(methyl(2-methylbutyl)amino)pyridin-3-yl)naphtho[2,3-c]furan-1(3H)-one]	> 50 µM	22.63	5.66	–
COc1cc2cc3c(c(-c4ccc5[nH]ccc5c4)c2cc1OC)C(=O)OC3 [Example 34, 9-(1H-indol-5-yl)-6,7-dimethoxynaphtho[2,3-c]furan-1(3H)-one]	> 50 µM	12.40	–	5.39
COc1cc2cc3c(c(-c4cnc(N(CCO)CCO)nc4)c2cc1OC)C(=O)OC3.Cl [Example 85, 9-(2-(bis(2-hydroxyethyl)amino)pyrimidin-5-yl)-6,7-dimethoxynaphtho[2,3-c]furan-1(3H)-one hydrochloride]	> 50 µM	1.00	< 4.30	–
COc1cc2cc3c(c(-c4cnc(N5CCN(C)CC5)nc4)c2cc1OC)C(=O)OC3 [Example 7]	> 50 µM	3.74	–	4.87
COc1cc2cc3c(c(-c4ccc5c(c4)CN(C)CC5)c2cc1OC)C(=O)OC3 [Example 190, 6,7-dimethoxy-9-(2-methyl-1,2,3,4-tetrahydroisoquinolin-7-yl)naphtho[2,3-c]furan-1(3H)-one]	> 50 µM	1.73	–	4.54
COc1cc2cc3c(c(-c4ccc5occc5c4)c2cc1OC)C(=O)OC3 [Example 52, 9-(benzofuran-5-yl)-6,7-dimethoxynaphtho[2,3-c]furan-1(3H)-one]	> 50 µM	35.13	–	5.85
COc1cc2cc3c(c(-c4ccc(N[C@H]5CCc6c(cccc6OC)C5)nc4)c2cc1OC)C(=O)OC3.Cl [Example 172, (S)-6,7-dimethoxy-9-(6-((5-methoxy-1,2,3,4-tetrahydronaphthalen-2-yl)amino)pyridin-3-yl)naphtho[2,3-c]furan-1(3H)-one]	> 50 µM	1.0	< 4.30	–
